In patent US6593372B2, “Therapeutic uses for nitric oxide inhibitors” (Cold Spring Harbor Laboratory, priority 1996, dated 2003):
Marks after values point to notes of the source that are not given here.

Key:
[1] = system: tadpole brain, optic tectum; test: Elvax implants with NO donor or NOS inhibitor in brain ventricle of stage 45 tadpoles, optic tectum analysis; type: in vivo; conditions: 7d
BM cells [2] = test: Hematopoietic markers in BM cells of irradiated mice after injection of NOS inhibitors; type: in vivo; conditions: 7-10 days after transplantation
Procedure: To study the maturation of hematopoietic cells in the bone marrow of the irradiated recipient mice, the animals were treated as described above and the BM cells from the demurs of syngeneic donors were injected intravenously (10^5 BM cells per mice) in the recipients.
The BM cells were tested for the presence of various growth factor receptors which serve as markers of the differentiation stage and indicate the presence of stem cells and multipotent percursor cells. The BM preparations were tested for cells expressing receptors to HSF (ligand of c-kit), GM-CSF, G-CSF and IL-3.

developing Xenopus brain = test: Plastic impregnated with NOS inhibitors in brain ventricle of stage 43 tadpoles (BrdU, TUNEL); type: in vivo, Xenopus laevis; conditions: stage 43 tadpoles, 3, 7 and 12 days, vs control brains
Procedure: After 3, 7 and 12 days, animals were examined for changes in the patterns of cell division, differentiation, survival, and morphology of the brain. […] Whether the inhibition of NOS and excessive proliferation of cells in the developing brain affects the programmed death of neurons in the tectum was tested. […] The increase in the number of TUNEL-positive cells is not due to toxicity of the inhibitors, since cells continued to incorporate BrdU very effectively. […] Alternatively, this may indicate that differentiated neurons became dependent on NO for survival, similar to the situation in fully differentiated PC12 cells (Peunova et al., 1996). Neuronal differentiation in the brain is affected

[3] = system: tadpole brain, optic tectum; test: Elvax implants with NO donor or NOS inhibitor in brain ventricle of stage 45 tadpoles, optic tectum analysis; type: in vivo; conditions: for BrdU-positive cells per 10^3 cells, change / TUNEL-positive cells (total), change / TUNEL-positive cells per 10^3 cells, change / cell number, change / BrdU-positive cells (total), change / brain volume, change / cell density, change: vs saline control
Procedure: To test the effect of exogenously supplying NO to the developing tadpole brain, pieces of the slow-release matrix Elvax impregnated either with S-nitroso-N-acetylpenicillamin (SNAP, a widely used donor or NO which releases NO upon hydrolysis), or with saline as a control were inserted into the brain ventricle of state 45 tadpoles. At 1 or 3 days after implantation the following parameters in the optic tectum were analyzed: the total number of cells (as measured by the number of DAPI-stained nuclei), the number of S phase proliferating cells (as measured by BrdU incorporation), the number of apoptotic cells (as measured by TUNEL assay), the relative numbers of BrdU- and TUNEL-positive cells per 10^3 total cells, the size of the optic tectum, and the cell density in the tectum (Table 5). […] At 3 days the effects of NO on cell proliferation are less pronounced, likely reflecting the complete hydrolysis of the NO donor and the cessation of NO release. […] An increase in programmed cell death in response to NO likely contributes to the decrease in the total number of cells in the brain.
The close proximity of proliferating cells and NOS-expressing cells in the optic tectum and data from the NO donor experiments above are consistent with the proposed antiproliferative role of NO during Xenopus brain development. To test the causative role of NO in cell cycle arrest of neuronal precursors and to determine whether production of NO is necessary for cell cycle arrest and subsequent differentiation of neuronal precursors in the developing Xenopus brain, NOS activity in the brain was inhibited by using Elavax matrix impregnated with a NOS inhibitor, either L-NAME or ETU, or with saline as a control. Pieces of impregnated matrix were inserted into the brain ventricle of stage 45 tadpoles. After 3 days of treatment the brains were examined for changes in the patterns of cell division and differentiation, cell number, and overall size and morphology.
Animals, NOS inhibitors, and NO donors. Albino Xenopus laevis tadpoles were obtained by human chorionic gonadotrophin induced matings and raised under standard conditions. At state 45^5, animals were anesthetized in 0.02% 3-aminobenzoic acid (MS-222; Sigma) and a tiny piece (100 μm^2×30 μm) of slow release Elvax plastic polymer (Dupont) was inserted into the tectal ventricle through an incision made in the overlying skin with a 30 gauge needle. Elvax was prepared with stock concentrations of the NOS inhibitors, 2-ethyl-2thiopseudourea (ETU, Sigma) or L-nitro-arginine methyl ester (L-NAME, Sigma) or the NO donor S-nitroso-acetylpenicillamnin (SNAP, Sigma) prepared as a 1:10 ratio of chemical to polymer matrix. Low molecular weight molecules, including L-NAME, are released at a constant rate over a period up to 30 days as the lyophilized Elvax matrix slowly hydrates. […] Control animals were treated with Elvax impregnated with saline (0.1 M phosphate buffer).
Histochemistry and antibodies. Immunocytochemistry with wholemount preparations and sections of the tadpole was performed as described. Monoclonal antibodies to β-II tubulin, N-CAM (developed by U. Rutishauser), and Islet-1 (developed by T. M. Jessell) were obtained from the Developmental Studies Hybridoma Bank developed under the auspices of the NICHD and maintained by the University of Iowa, Department of Biological Sciences, Iowa City, Iowa 52243. Anti-mouse antibody conjugated to fluorescein (Bochringer Manheim) was used as a secondary antibody. Specimens were visualized and photographed under fluorescence or Normarski optics on a Zeiss Axiophot. For nuclei visualization, brain sections were stained with DAPI, a fluorescent DNA stain (Molecular Probes) at 1 μM. To identify cells in S phase tadpoles were injected with 50 μg/ml 5-Bromo-deoxyuridine (BrdU) (Beckton-dickinson). After two hours survival, animals were fixed in 3.7% paraformaldehyde for 2 hours and then in 70% ethanol overnight. […]

BM cells [4] = test: TUNEL apoptosis in BM cells after prolonged treatment with NOS inhibitors; type: in vivo; conditions: control 8+/−3%
Excerpt: To test whether prolonged treatment with NOS inhibitors affects the rate of programmed cell death in BM cells, the number of aproptotic cells in the preparation of BM cells was examined.

CCSC(=N)N [ETU, 2-ethyl-2-thiopseudourea]
cell density [1]: 105 +/− 3* cells per mm^3 × 10^−4
BrdU-positive cells (total), change ([1]; vs saline control): +269%
cell density, change ([1]; vs saline control): +25.5%
c-kit positive BM cells (BM cells [2]; control 2%): 84%
IL-3-R positive BM cells (BM cells [2]; control 7%): 83%
GM-CSF-R positive BM cells (BM cells [2]; control 18%): 10%
G-CSF-R positive BM cells (BM cells [2]; control 24%): 8%
number of cells in the S phase (BrdU labeling) in the brain (developing Xenopus brain): dramatic increase
BrdU-positive cells (total) ([3]; 7d): 550 +/− 50
BrdU-positive cells per 10^3 cells ([3]; 7d): 42
TUNEL-positive cells (total) ([3]; 7d): 184 +/− 7
TUNEL-positive cells per 10^3 cells ([3]; 7d): 14
brain volume ([3]; 7d): 122.3 +/− 4.3* mm^3 × 10^−4
cell number ([3]; 7d): 12870 +/− 690*
BrdU-positive cells per 10^3 cells, change ([3]; 7d): +247%
TUNEL-positive cells (total), change ([3]; 7d): +128%
TUNEL-positive cells per 10^3 cells, change ([3]; 7d): +40.0%
cell number, change ([3]; 7d): +53.7%
toxicity to the animals ([3]; Elvax stock 1 M L-NAME, 10 mM ETU, increased BrdU incorporation): without any signs of toxicity
proportion of apoptotic cells (TUNEL) in BM (BM cells [4]): 8%

CC(=O)N[C@H](C(=O)O)C(C)(C)SN=O (racemic) [SNAP, S-nitroso-N-acetylpenicillamine]
BrdU-positive cells (total) ([3]; 1d): 12 +/− 2
BrdU-positive cells per 10^3 cells ([3]; 1d): 3
TUNEL-positive cells (total) ([3]; 1d): 138 +/− 12
TUNEL-positive cells per 10^3 cells ([3]; 1d): 34
brain volume ([3]; 1d): 66.2 +/− 6.4 mm^3 × 10^−4
cell density ([3]; 1d): 62.6 +/− 14.1 cells per mm^3 × 10^−4
cell number ([3]; 1d): 3983 +/− 606
BrdU-positive cells (total), change ([3]; 1d): −96.2%
BrdU-positive cells per 10^3 cells, change ([3]; 1d): −95.2%
TUNEL-positive cells (total), change ([3]; 1d): −28.2%
TUNEL-positive cells per 10^3 cells, change ([3]; 1d): −10.5%
brain volume, change ([3]; 1d): −15.6%
cell density, change ([3]; 1d): −2.8%
cell number, change ([3]; 1d): −20.7%
BrdU-positive cells (total) ([3]; 3d): 316 +/− 22
BrdU-positive cells per 10^3 cells ([3]; 3d): 63
TUNEL-positive cells (total) ([3]; 3d): 82 +/− 10
TUNEL-positive cells per 10^3 cells ([3]; 3d): 16
brain volume ([3]; 3d): 80.1 +/− 8.6* mm^3 × 10^−4
cell density ([3]; 3d): 62.3 +/− 1.7** cells per mm^3 × 10^−4
cell number ([3]; 3d): 5012 +/− 594**
BrdU-positive cells (total), change ([3]; 3d): −34.0%
BrdU-positive cells per 10^3 cells, change ([3]; 3d): +21.1%
TUNEL-positive cells (total), change ([3]; 3d): −51%
TUNEL-positive cells per 10^3 cells, change ([3]; 3d): −11.1%
brain volume, change ([3]; 3d): −31.3%
cell density, change ([3]; 3d): −20.8%
cell number, change ([3]; 3d): −45.1%
stock concentration found to be effective ([3]; Elvax stock, range of concentrations tested): 300 mM
number of proliferating cells, of the control value ([3]; day 1): 5%
